Reference: ChEMBL document CHEMBL1201862, “PubChem BioAssay data set” (2004)
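Growth conditions: 96-well plates. Treatment: test compound, 48 hours, 5 concentrations. Analysis: linear interpolation between bracketing concentrations; unreached endpoints set to highest concentration. GI50: concentration for 50% inhibition of growth.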 Activity calls are given as the source filed them. No stated cut-off is given here; in the data, active = GI50 up to about 1.1 µM and inactive = higher.

Assays:
Assay in all cases: NCI tumour cell line growth inhibition, 48 h
NCI-H226 = tested on: NCI-H226
SK-MEL-28 = tested on: SK-MEL-28
BT-549 = tested on: BT-549
KM12 = tested on: KM12
UACC-257 = tested on: UACC-257
NCI-H23 = tested on: NCI-H23
M14 = tested on: M14
786-0 = tested on: 786-0
EKVX = tested on: EKVX
HCC 2998 = tested on: HCC 2998
HOP-92 = tested on: HOP-92
SNB-19 = tested on: SNB-19
CAKI-1 = tested on: CAKI-1
OVCAR-3 = tested on: OVCAR-3
HCT-15 = tested on: HCT-15
HL-60 = tested on: HL-60
K562 = tested on: K562
SF-268 = tested on: SF-268
Hs-578T = tested on: Hs-578T

SMILES | GI50 (NCI-H226) | GI50 (SK-MEL-28) | GI50 (BT-549) | GI50 (KM12) | GI50 (UACC-257) | GI50 (NCI-H23) | GI50 (M14) | GI50 (786-0) | GI50 (EKVX) | GI50 (HCC 2998) | GI50 (HOP-92) | GI50 (SNB-19) | GI50 (CAKI-1) | GI50 (OVCAR-3) | GI50 (HCT-15) [µM] | GI50 (HL-60) | GI50 (K562) | GI50 (SF-268) | GI50 (Hs-578T)
CNc1nc(=O)c(C#N)c(-c2ccc(C)cc2)s1 | > 100 µM (inactive) | > 100 µM (inactive) | > 100 µM (inactive) | > 100 µM (inactive) | > 100 µM (inactive) | > 100 µM (inactive) | > 100 µM (inactive) | > 100 µM (inactive) | 67.6 µM (inactive) | > 100 µM (inactive) | > 100 µM (inactive) | > 100 µM (inactive) | 35.6 µM (inactive) | > 100 µM (inactive) | > 100 | 53.7 µM (inactive) | > 100 µM (inactive) |  | 
CC(=O)OC12c3ccccc3-c3ccccc3C1C1C(=O)N(C)C(=O)C12Cl (stereo unspecified) | > 10 µM (inactive) | > 10 µM (inactive) |  | > 10 µM (inactive) | > 10 µM (inactive) | > 10 µM (inactive) | > 10 µM (inactive) | > 10 µM (inactive) | > 10 µM (inactive) | > 10 µM (inactive) | > 10 µM (inactive) | > 10 µM (inactive) | > 10 µM (inactive) | > 10 µM (inactive) | > 10 | > 10 µM (inactive) | > 10 µM (inactive) | > 10 µM (inactive) | > 10 µM (inactive)
N[C@H]1CCc2c1nc1c(c2-c2ccccc2)CC[C@@H]1N | 33.6 µM (inactive) |  | 12.4 µM (inactive) | 28.9 µM (inactive) | > 10 µM (inactive) | 25.2 µM (inactive) | 16.3 µM (inactive) | 14.7 µM (inactive) | > 100 µM (inactive) | 21.4 µM (inactive) | 21.3 µM (inactive) | 82.8 µM (inactive) | 14.8 µM (inactive) |  | 34.4 | 15.7 µM (inactive) | 12.3 µM (inactive) | 18.1 µM (inactive) | 
CCOC(CN(C)C(=S)Nc1cccc2ccccc12)OCC | > 10 µM (inactive) | > 10 µM (inactive) |  | > 10 µM (inactive) | > 10 µM (inactive) | > 10 µM (inactive) | > 10 µM (inactive) | > 10 µM (inactive) | > 10 µM (inactive) | > 10 µM (inactive) | 5.51 µM (inactive) | > 10 µM (inactive) | > 10 µM (inactive) | > 10 µM (inactive) | > 10 | > 10 µM (inactive) | > 10 µM (inactive) | > 10 µM (inactive) | > 10 µM (inactive)
O=C(Nc1cnc(O)nc1O)C(Cl)Cl | > 100 µM (inactive) | > 100 µM (inactive) |  | > 100 µM (inactive) | > 100 µM (inactive) | > 100 µM (inactive) | > 100 µM (inactive) | > 100 µM (inactive) | > 100 µM (inactive) | > 100 µM (inactive) | > 100 µM (inactive) | > 100 µM (inactive) | > 100 µM (inactive) | > 100 µM (inactive) | > 100 | > 100 µM (inactive) | > 100 µM (inactive) |  | 
CCN(CC)CCCNc1nc(=O)[nH]c(C)c1C(=O)Nc1c2ccccc2nc2ccccc12 | 14.9 µM (inactive) | 12.3 µM (inactive) |  | 3.56 µM (inactive) | 15.6 µM (inactive) | 7.53 µM (inactive) | 15.5 µM (inactive) | 11.3 µM (inactive) | 12.2 µM (inactive) | 8.79 µM (inactive) | 2.63 µM (inactive) | 8.71 µM (inactive) | 7.28 µM (inactive) | 6.14 µM (inactive) | 4.8 | 5.01 µM (inactive) | 4.75 µM (inactive) |  | 
COc1cc(/C=C/C(=O)OC2C(O)C3CC(OC(=O)c4cc(OC)c(OC)c(OC)c4)CC2N3C)cc(OC)c1OC (stereo unspecified) | 12.1 µM (inactive) |  | > 50 µM (inactive) | 25.3 µM (inactive) | > 50 µM (inactive) | > 50 µM (inactive) | > 50 µM (inactive) | 18.5 µM (inactive) | > 50 µM (inactive) | 15 µM (inactive) | 9.77 µM (inactive) | 12.9 µM (inactive) | 27 µM (inactive) | 8.02 µM (inactive) | 28.1 |  | > 50 µM (inactive) | > 50 µM (inactive) | 
Cc1ccc([S+]([O-])c2cccs2)cc1 (stereo unspecified) | > 100 µM (inactive) | > 100 µM (inactive) | > 100 µM (inactive) | > 100 µM (inactive) | > 100 µM (inactive) | > 100 µM (inactive) | > 100 µM (inactive) | > 100 µM (inactive) | > 100 µM (inactive) |  | > 100 µM (inactive) | > 100 µM (inactive) |  | > 100 µM (inactive) | > 100 | > 100 µM (inactive) | > 100 µM (inactive) | > 100 µM (inactive) | 
CC(=O)O[C@H]1C(=O)[C@@]2(C)C(C(OC(=O)c3ccccc3)[C@]3(O)CC(OC(=O)C(O)C(NC(=O)c4ccccc4)c4cccc(Cl)c4)C(C)=C1C3(C)C)[C@]1(OC(C)=O)CO[C@@H]1C[C@@H]2O (stereo partly specified) | > 10 µM (inactive) |  | > 10 µM (inactive) | 3.72 µM (inactive) | 9.46 µM (inactive) | 4.39 µM (inactive) | > 10 µM (inactive) | > 10 µM (inactive) | 7.23 µM (inactive) | 4.67 µM (inactive) |  | > 10 µM (inactive) | > 10 µM (inactive) | 4.18 µM (inactive) | > 10 | 1.38 µM (inactive) | 4.94 µM (inactive) | 7.26 µM (inactive) | 
COc1cccc2c(NNc3ccccc3)c3ccc([N+](=O)[O-])cc3nc12 | 24.9 µM (inactive) | 43.2 µM (inactive) | 12.1 µM (inactive) | 11.6 µM (inactive) | 29.9 µM (inactive) | 20.5 µM (inactive) | 24 µM (inactive) | 21.2 µM (inactive) | 78.2 µM (inactive) | 32.7 µM (inactive) | 26.4 µM (inactive) | > 100 µM (inactive) | 12 µM (inactive) | 50.2 µM (inactive) | 33 |  | 83.4 µM (inactive) | 19.6 µM (inactive) | 
COC1=CC(=O)c2c(cc(COP(N)(=O)N(CCBr)CCBr)n2C)C1=O (stereo unspecified) | < 0.01 µM (active) | 1.56 µM (inactive) |  | 1 µM (active) | 1.2 µM (inactive) | < 0.01 µM (active) | < 0.01 µM (active) | < 0.01 µM (active) | 0.0212 µM (active) |  |  | 1.3 µM (inactive) | < 0.01 µM (active) | 0.0822 µM (active) | 0.242 | 0.0113 µM (active) | 0.135 µM (active) | < 0.01 µM (active) | 
C#CCC(N)(CO)C(=O)O (stereo unspecified) | > 100 µM (inactive) | > 100 µM (inactive) |  | > 100 µM (inactive) | > 100 µM (inactive) | > 100 µM (inactive) | > 100 µM (inactive) | > 100 µM (inactive) | > 100 µM (inactive) | > 100 µM (inactive) | > 100 µM (inactive) | > 100 µM (inactive) | > 100 µM (inactive) | > 100 µM (inactive) | > 100 | > 100 µM (inactive) | > 100 µM (inactive) | > 100 µM (inactive) | 
O=c1[nH]ncc2[nH]c3c4ccccc4ccc3c12 |  |  | 93.8 µM (inactive) | 37.4 µM (inactive) |  |  | 94.6 µM (inactive) | 61.7 µM (inactive) | 10.8 µM (inactive) | 60.1 µM (inactive) | 14 µM (inactive) |  | 48.2 µM (inactive) | 29.6 µM (inactive) | 12.4 | 80.7 µM (inactive) | 45.7 µM (inactive) | 37.2 µM (inactive) | 
